Reference: patent US20260337208A1, “HETEROCYCLIC DERIVATIVES AS JANUS KINASE INHIBITORS” (CHIESI FARMACEUTICI S.P.A., priority 2022, published 2026)

Tests used:
JAK1 = JAK1 (Homo sapiens, UniProt P23458); experiment: Biochemical potency on JAK1, TR-FRET (LANCE Ultra kinase assay); details: ATP corresponding to Km; cell-free; read-out: JAK1 inhibitory activity (pIC50) (converted)
In short: (§1)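 ULight-JAK-1 (Tyr1023) peptide phosphorylation at Km ATP, 1.5 h r.t.; substrate solution held peptide 30/50/20/10 nM and ATP 20/0.7/0.2/12 μM, enzyme solution 0.15/0.083/0.025/0.144 ng/μL (JAK1/JAK2/JAK3/TYK2). EDTA stop, Eu-PT66 antibody TR-FRET read at 665 nm; 11-point 5-fold dilutions from 20 μM; IC50 by variable-slope fit.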

TYK2 = TYK2 (Homo sapiens, UniProt P29597); experiment: Biochemical potency on Tyk2, TR-FRET (LANCE Ultra kinase assay); details: ATP corresponding to Km; cell-free; read-out: TYK2 inhibitory activity (pIC50) (converted)
In short: as §1

[1] = test system: pSTAT6 in BEAS-2B human cell line; experiment: Inhibition of IL-13 induced pSTAT6 in BEAS; format: cell-based; details: for IC50: Homo sapiens, BEAS-2B, 0.5 h, IL-13 trigger, 30 min, parent compound; for Fold difference parent vs predicted acid metabolite: ratio=IC50 predicted acid metabolite/IC50 ester
In short: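 BEAS-2B cells grown 48 h, pre-treated 30 min with compound, then stimulated 30 min with IL-13. Lysate pSTAT6 (Tyr641) measured by sandwich ELISA. Eleven 5-fold dilutions from 10 μM, in duplicate, fitted to IC50.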

JAK3 = target: T1, JAK3 (Homo sapiens, UniProt P52333); experiment: Biochemical potency on JAK3, TR-FRET (LANCE Ultra kinase assay); details: ATP corresponding to Km; cell-free; read-out: JAK3 inhibitory activity (pIC50) (converted)
T1 sequence (P52333 1-1124): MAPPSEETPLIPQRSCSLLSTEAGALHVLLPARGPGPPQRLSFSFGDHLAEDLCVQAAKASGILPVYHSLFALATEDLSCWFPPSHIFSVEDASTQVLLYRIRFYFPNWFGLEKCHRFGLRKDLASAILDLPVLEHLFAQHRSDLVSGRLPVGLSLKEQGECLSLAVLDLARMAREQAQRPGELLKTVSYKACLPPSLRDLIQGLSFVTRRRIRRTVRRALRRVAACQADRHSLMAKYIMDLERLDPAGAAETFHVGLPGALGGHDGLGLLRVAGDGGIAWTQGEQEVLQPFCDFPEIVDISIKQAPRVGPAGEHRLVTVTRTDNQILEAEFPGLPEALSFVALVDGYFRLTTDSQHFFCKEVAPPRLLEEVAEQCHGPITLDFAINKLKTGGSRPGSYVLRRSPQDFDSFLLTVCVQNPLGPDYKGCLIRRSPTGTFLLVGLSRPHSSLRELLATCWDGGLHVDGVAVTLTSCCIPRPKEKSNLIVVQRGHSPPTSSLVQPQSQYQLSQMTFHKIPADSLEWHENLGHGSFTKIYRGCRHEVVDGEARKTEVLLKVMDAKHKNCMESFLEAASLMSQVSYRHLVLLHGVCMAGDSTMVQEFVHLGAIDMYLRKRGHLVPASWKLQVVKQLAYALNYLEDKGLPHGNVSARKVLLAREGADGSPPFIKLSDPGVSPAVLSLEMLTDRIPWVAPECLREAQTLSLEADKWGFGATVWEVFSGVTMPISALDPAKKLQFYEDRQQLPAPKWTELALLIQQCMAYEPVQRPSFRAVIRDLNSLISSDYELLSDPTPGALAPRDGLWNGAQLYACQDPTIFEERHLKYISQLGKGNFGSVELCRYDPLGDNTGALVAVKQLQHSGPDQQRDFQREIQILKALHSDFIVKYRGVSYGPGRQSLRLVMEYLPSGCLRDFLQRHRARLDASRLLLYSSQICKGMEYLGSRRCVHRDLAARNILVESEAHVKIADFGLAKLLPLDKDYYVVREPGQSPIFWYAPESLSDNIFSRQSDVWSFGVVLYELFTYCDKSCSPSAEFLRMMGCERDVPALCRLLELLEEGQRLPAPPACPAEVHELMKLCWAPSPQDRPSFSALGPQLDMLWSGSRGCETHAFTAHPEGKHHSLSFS
In short: as §1

JAK2 = JAK2 (Homo sapiens, UniProt O60674); experiment: Biochemical potency on JAK2, TR-FRET (LANCE Ultra kinase assay); details: ATP corresponding to Km; cell-free; read-out: JAK2 inhibitory activity (pIC50) (converted)
In short: as §1

Chain of TYK2 (P29597 whole entry): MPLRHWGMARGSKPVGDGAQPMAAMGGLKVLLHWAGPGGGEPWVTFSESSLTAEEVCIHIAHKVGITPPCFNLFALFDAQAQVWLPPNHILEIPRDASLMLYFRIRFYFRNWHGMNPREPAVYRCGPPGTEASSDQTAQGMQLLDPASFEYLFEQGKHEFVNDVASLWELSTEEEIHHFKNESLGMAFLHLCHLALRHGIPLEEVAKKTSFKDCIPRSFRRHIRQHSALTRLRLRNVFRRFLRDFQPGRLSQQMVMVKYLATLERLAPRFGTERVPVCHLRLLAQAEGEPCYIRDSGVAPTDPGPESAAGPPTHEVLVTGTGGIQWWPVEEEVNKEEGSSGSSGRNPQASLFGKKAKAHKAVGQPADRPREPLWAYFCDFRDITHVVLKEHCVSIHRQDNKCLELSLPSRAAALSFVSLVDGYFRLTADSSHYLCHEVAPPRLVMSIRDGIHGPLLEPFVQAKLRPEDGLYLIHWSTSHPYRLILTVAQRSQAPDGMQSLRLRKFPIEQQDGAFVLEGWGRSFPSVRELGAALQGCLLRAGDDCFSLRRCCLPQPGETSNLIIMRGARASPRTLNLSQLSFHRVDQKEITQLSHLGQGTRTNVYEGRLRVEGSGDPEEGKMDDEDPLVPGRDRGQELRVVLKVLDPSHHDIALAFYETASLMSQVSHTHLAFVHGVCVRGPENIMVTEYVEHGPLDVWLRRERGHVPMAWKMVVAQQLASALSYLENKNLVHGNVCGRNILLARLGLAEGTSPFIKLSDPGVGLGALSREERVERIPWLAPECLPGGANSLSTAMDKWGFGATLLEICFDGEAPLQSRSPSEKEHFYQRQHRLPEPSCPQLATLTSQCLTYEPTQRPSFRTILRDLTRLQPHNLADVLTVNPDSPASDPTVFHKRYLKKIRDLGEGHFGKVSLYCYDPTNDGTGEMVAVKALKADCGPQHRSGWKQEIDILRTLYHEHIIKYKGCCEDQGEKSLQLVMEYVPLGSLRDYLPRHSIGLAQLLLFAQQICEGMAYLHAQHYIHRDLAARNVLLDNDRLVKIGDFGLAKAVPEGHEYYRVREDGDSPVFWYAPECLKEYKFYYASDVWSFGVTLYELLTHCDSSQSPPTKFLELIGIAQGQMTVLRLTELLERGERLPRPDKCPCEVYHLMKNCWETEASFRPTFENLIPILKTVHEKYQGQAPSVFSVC
Chain of JAK2 (O60674 whole entry): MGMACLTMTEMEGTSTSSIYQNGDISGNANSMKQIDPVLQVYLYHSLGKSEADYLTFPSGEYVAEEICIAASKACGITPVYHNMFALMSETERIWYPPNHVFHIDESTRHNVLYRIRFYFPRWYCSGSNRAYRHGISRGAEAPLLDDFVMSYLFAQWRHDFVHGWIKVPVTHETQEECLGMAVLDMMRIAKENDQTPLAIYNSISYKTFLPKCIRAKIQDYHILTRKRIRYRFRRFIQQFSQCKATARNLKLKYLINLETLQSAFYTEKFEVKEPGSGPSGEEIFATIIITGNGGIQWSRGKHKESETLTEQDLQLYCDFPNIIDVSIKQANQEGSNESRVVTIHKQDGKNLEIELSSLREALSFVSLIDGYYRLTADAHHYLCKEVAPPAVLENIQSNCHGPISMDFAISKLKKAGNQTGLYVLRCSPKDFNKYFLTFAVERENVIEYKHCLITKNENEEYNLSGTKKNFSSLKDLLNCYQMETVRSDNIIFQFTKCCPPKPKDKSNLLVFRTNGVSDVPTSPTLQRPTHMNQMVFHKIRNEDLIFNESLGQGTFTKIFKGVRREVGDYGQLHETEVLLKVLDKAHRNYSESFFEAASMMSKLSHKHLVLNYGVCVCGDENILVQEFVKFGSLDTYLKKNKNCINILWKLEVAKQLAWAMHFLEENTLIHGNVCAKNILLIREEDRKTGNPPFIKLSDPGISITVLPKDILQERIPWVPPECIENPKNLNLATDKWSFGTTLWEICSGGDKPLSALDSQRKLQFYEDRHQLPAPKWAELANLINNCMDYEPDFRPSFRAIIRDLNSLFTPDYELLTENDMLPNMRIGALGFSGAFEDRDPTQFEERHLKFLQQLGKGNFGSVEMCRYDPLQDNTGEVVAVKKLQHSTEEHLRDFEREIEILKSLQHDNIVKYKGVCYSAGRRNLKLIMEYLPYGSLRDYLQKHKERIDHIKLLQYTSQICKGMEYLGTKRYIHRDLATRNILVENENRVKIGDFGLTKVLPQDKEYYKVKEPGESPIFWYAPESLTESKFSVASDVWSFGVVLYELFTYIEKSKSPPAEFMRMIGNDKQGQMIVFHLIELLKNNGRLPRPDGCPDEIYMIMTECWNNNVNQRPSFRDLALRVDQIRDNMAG
Chain of JAK1 (P23458 whole entry): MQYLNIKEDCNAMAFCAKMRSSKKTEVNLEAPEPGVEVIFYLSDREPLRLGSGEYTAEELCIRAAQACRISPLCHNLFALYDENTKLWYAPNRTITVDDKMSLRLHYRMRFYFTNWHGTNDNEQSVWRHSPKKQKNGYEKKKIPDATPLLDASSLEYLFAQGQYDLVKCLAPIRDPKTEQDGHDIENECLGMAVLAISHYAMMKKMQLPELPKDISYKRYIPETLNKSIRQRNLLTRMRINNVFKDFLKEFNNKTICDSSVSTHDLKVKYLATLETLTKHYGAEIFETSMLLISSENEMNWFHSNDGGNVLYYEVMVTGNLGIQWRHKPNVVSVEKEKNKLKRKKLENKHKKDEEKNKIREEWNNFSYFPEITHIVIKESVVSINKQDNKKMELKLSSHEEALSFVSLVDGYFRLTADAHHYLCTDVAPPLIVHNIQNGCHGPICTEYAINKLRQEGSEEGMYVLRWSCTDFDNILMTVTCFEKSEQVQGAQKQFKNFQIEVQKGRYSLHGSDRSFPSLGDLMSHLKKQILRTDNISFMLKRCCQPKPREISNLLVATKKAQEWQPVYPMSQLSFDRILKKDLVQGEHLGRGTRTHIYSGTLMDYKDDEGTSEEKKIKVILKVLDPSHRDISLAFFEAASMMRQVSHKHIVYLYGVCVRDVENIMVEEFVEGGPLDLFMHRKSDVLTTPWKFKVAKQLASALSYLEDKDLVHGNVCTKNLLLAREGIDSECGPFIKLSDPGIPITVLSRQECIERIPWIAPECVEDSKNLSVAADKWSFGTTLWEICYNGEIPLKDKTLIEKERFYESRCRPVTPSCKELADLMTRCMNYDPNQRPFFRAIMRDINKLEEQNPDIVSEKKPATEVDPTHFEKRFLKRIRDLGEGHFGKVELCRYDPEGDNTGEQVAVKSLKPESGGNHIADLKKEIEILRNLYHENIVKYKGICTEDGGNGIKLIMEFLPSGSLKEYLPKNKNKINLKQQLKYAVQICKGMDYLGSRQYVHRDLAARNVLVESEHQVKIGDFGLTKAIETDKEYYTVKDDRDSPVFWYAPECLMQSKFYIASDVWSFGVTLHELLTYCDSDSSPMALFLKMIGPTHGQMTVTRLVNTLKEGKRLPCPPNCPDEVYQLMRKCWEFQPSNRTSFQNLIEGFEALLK

SMILES	IC50 (JAK1)	IC50 (TYK2)	IC50 (JAK3)	IC50 (JAK2)	IC50 [1]	Fold difference parent vs predicted acid metabolite [1]
COc1cc2c(cc1-n1nc(C(=O)NCCN3CCC(C(=O)O[C@H]4CN(C)C[C@@H]4F)CC3)c3cnc(-c4cnn5cccnc45)cc31)OCCN2 [Example 50, (3S,4S)-4-fluoro-1-methylpyrrolidin-3-yl 1-(2-(1-(6-methoxy-3,4-dihydro-2H-benzo[b][1,4]oxazin-7-yl)-6-(pyrazolo[1,5-a]pyrimidin-3-yl)-1H-pyrazolo[4,3-c]pyridine-3-carboxamido)ethyl)piperidine-4-carboxylate]	≤ 5.01 nM	5.01 to 50.1 nM	≤ 5.01 nM	≤ 5.01 nM	≤ 5.01 nM	kkkk (ratio≥200)
CCOC(=O)C1CCN(CCOC(=O)Nc2nn(-c3cc4c(cc3OC)NCCO4)c3cc(-c4cnn5cccnc45)ncc23)CC1 [Example 41, ethyl 1-(2-(((1-(6-methoxy-3,4-dihydro-2H-benzo[b][1,4]oxazin-7-yl)-6-(pyrazolo[1,5-a]pyrimidin-3-yl)-1H-pyrazolo[4,3-c]pyridin-3-yl)carbamoyl)oxy)ethyl)piperidine-4-carboxylate]	≤ 5.01 nM	5.01 to 50.1 nM	≤ 5.01 nM	≤ 5.01 nM	≤ 5.01 nM	kkk (200>ratio≥100)
CCC(C)OC(=O)C1CCN(CCNC(=O)c2nn(-c3cc4c(cc3OC)NCCO4)c3cc(-c4cnn5cccnc45)ncc23)CC1 (centres unmarked) [Example 10, sec-butyl 1-(2-(1-(6-methoxy-3,4-dihydro-2H-benzo[b][1,4]oxazin-7-yl)-6-(pyrazolo[1,5-a]pyrimidin-3-yl)-1H-pyrazolo[4,3-c]pyridine-3-carboxamido)ethyl)piperidine-4-carboxylate]	≤ 5.01 nM	5.01 to 50.1 nM	≤ 5.01 nM	≤ 5.01 nM	≤ 5.01 nM	kkkk (ratio≥200)
COc1cc2c(cc1-n1nc(C(=O)NCCN3CCC(C(=O)OC(C)C)CC3)c3cnc(-c4cnn5cccnc45)cc31)OCCN2 [Example 45, isopropyl 1-(2-(1-(6-methoxy-3,4-dihydro-2H-benzo[b][1,4]oxazin-7-yl)-6-(pyrazolo[1,5-a]pyrimidin-3-yl)-1H-pyrazolo[4,3-c]pyridine-3-carboxamido)ethyl)piperidine-4-carboxylate]	≤ 5.01 nM	5.01 to 50.1 nM	≤ 5.01 nM	≤ 5.01 nM	≤ 5.01 nM	kkkk (ratio≥200)
COC(=O)[C@@H]1CCN(CCNC(=O)c2nn(-c3cc4c(cc3OC)NCCO4)c3cc(-c4cnn5cccnc45)ncc23)C1 [Example 29, methyl (R)-1-(2-(1-(6-methoxy-3,4-dihydro-2H-benzo[b][1,4]oxazin-7-yl)-6-(pyrazolo[1,5-a]pyrimidin-3-yl)-1H-pyrazolo[4,3-c]pyridine-3-carboxamido)ethyl)pyrrolidine-3-carboxylate]	≤ 5.01 nM	5.01 to 50.1 nM	≤ 5.01 nM	≤ 5.01 nM	≤ 5.01 nM	kkk (200>ratio≥100)
COc1cc2c(cc1-n1nc(C(=O)NCCCN3CCC(C(=O)OC4CCN(C)CC4)CC3)c3cnc(-c4cnn5cccnc45)cc31)OCCN2 [Example 26, 1-methylpiperidin-4-yl 1-(3-(1-(6-methoxy-3,4-dihydro-2H-benzo[b][1,4]oxazin-7-yl)-6-(pyrazolo[1,5-a]pyrimidin-3-yl)-1H-pyrazolo[4,3-c]pyridine-3-carboxamido)propyl)piperidine-4-carboxylate]	5.01 to 50.1 nM	5.01 to 50.1 nM	≤ 5.01 nM	≤ 5.01 nM	5.01 to 50.1 nM	
COc1cc2c(cc1-n1nc(C(=O)NCCN3CCC(C(=O)OCC4CCOCC4)CC3)c3cnc(-c4cnn5cccnc45)cc31)OCCN2 [Example 18, (tetrahydro-2H-pyran-4-yl)methyl 1-(2-(1-(6-methoxy-3,4-dihydro-2H-benzo[b][1,4]oxazin-7-yl)-6-(pyrazolo[1,5-a]pyrimidin-3-yl)-1H-pyrazolo[4,3-c]pyridine-3-carboxamido)ethyl)piperidine-4-carboxylate]	≤ 5.01 nM	5.01 to 50.1 nM	≤ 5.01 nM	≤ 5.01 nM	≤ 5.01 nM	kkkk (ratio≥200)
COc1cc2c(cc1-n1nc(C(=O)NCCN3CCC(C(=O)OCC(C)(C)C#N)CC3)c3cnc(-c4cnn5cccnc45)cc31)OCCN2 [Example 25, 2-cyano-2-methylpropyl 1-(2-(1-(6-methoxy-3,4-dihydro-2H-benzo[b][1,4]oxazin-7-yl)-6-(pyrazolo[1,5-a]pyrimidin-3-yl)-1H-pyrazolo[4,3-c]pyridine-3-carboxamido)ethyl)piperidine-4-carboxylate]	≤ 5.01 nM	5.01 to 50.1 nM	≤ 5.01 nM	≤ 5.01 nM	≤ 5.01 nM	kkkk (ratio≥200)

Continued, in another order:

IC50 (JAK1)	IC50 (TYK2)	IC50 (JAK3)	IC50 (JAK2)	SMILES	IC50 [1]	Fold difference parent vs predicted acid metabolite [1]
≤ 5.01 nM	5.01 to 50.1 nM	≤ 5.01 nM	≤ 5.01 nM	COc1cc2c(cc1-n1nc(C(=O)NCCN3CCC(CC(=O)O[C@@H]4CCN(CCF)C4)CC3)c3cnc(-c4cnn5cccnc45)cc31)OCCN2 [Example 52, (R)-1-(2-fluoroethyl)pyrrolidin-3-yl 2-(1-(2-(1-(6-methoxy-3,4-dihydro-2H-benzo[b][1,4]oxazin-7-yl)-6-(pyrazolo[1,5-a]pyrimidin-3-yl)-1H-pyrazolo[4,3-c]pyridine-3-carboxamido)ethyl)piperidin-4-yl)acetate]	5.01 to 50.1 nM	kkk (200>ratio≥100)
≤ 5.01 nM	5.01 to 50.1 nM	≤ 5.01 nM	≤ 5.01 nM	COc1cc2c(cc1-n1nc(C(=O)NCCN3CCC(C(=O)O[C@@H]4CN(C)C[C@H]4F)CC3)c3cnc(-c4cnn5cccnc45)cc31)OCCN2 (relative stereo) [Example 51, (3R*,4R*)-4-fluoro-1-methylpyrrolidin-3-yl 1-(2-(1-(6-methoxy-3,4-dihydro-2H-benzo[b][1,4]oxazin-7-yl)-6-(pyrazolo[1,5-a]pyrimidin-3-yl)-1H-pyrazolo[4,3-c]pyridine-3-carboxamido)ethyl)piperidine-4-carboxylate]	5.01 to 50.1 nM	kkk (200>ratio≥100)
≤ 5.01 nM	5.01 to 50.1 nM	≤ 5.01 nM	≤ 5.01 nM	CCOC(=O)C1CCN(CCNC(=O)c2nn(-c3cc4c(cc3OC)NCCO4)c3cc(Nc4ncc[nH]c4=O)ncc23)CC1 [Example 58, ethyl 1-(2-(1-(6-methoxy-3,4-dihydro-2H-benzo[b][1,4]oxazin-7-yl)-6-((3-oxo-3,4-dihydropyrazin-2-yl)amino)-1H-pyrazolo[4,3-c]pyridine-3-carboxamido)ethyl)piperidine-4-carboxylate]	5.01 to 50.1 nM	kkkk (ratio≥200)
≤ 5.01 nM	5.01 to 50.1 nM	≤ 5.01 nM	≤ 5.01 nM	COc1cc2c(cc1-n1nc(C(=O)NCCN3CCC(C(=O)OC4CN(C(C)C)C4)CC3)c3cnc(-c4cnn5cccnc45)cc31)OCCN2 [Example 57, 1-isopropylazetidin-3-yl 1-(2-(1-(6-methoxy-3,4-dihydro-2H-benzo[b][1,4]oxazin-7-yl)-6-(pyrazolo[1,5-a]pyrimidin-3-yl)-1H-pyrazolo[4,3-c]pyridine-3-carboxamido)ethyl)piperidine-4-carboxylate]	5.01 to 50.1 nM	kkk (200>ratio≥100)
